# Marks after values point to notes of the source that are not given here.
# How the values were obtained:
# [1] = tested on: male rats with cytopenia; test: General blood analysis of male rats with cytopenia after application of cyclophosphane; assay type: in vivo, rat; settings: doses mg/kg: cysteine 9.5, lithium carbonate 3, C-Li 10, Fe-C-Li:C-Li 10
# [2] = tested on: Chlamydia trachomatis, strain L-2; test: Experimental generalized chlamydial infection of white mice; assay type: in vivo
# [3] = biological target: T1, epidermal growth factor receptor (Homo sapiens, UniProt P00533); test: Tyrosine kinase activity of the epidermal growth factor receptor in A431 cells (phosphotyrosine immunoblotting, densitometry); assay type: cell-based
# T1 construct: cells of the human epidermoid carcinoma line A431 have an extraordinarily high level of expression of the epidermal growth factor receptor; endogenous in cells; host or cells: A431 (All-Russian Cell Culture Collection)
# [4] = tested on: herpes type 2 (HSV-2); test: Generalized herpetic infection of white mice; assay type: in vivo; settings: mice infected with HSV-2
# [5] = tested on: peritoneal macrophages; test: Intracellular calcium concentration and Ca2+ signals in peritoneal macrophages (Fura-2AM); assay type: cell-based, rat
# [6] = 3 days after cyclophosphane 100 mg/kg
# [7] = 7 days after cyclophosphane 100 mg/kg
# [8] = 14 days after cyclophosphane 100 mg/kg
# [9] = mice infected with Chlamydia trachomatis L-2, josamycin 25 mg/kg orally daily for 10 days
# [10] = mice infected with Chlamydia trachomatis L-2, josamycin 50 mg/kg orally daily for 10 days
# [11] = mice infected with Chlamydia trachomatis L-2, josamycin 100 mg/kg orally daily for 10 days
# [12] = mice infected with Chlamydia trachomatis L-2, 2 LD50, 20 mg/kg s.c. daily for 10 days
# [13] = Zovirax 15 mg/kg daily for 14 days
# [14] = Zovirax 30 mg/kg daily for 14 days
# T1 sequence (P00533 25-1210): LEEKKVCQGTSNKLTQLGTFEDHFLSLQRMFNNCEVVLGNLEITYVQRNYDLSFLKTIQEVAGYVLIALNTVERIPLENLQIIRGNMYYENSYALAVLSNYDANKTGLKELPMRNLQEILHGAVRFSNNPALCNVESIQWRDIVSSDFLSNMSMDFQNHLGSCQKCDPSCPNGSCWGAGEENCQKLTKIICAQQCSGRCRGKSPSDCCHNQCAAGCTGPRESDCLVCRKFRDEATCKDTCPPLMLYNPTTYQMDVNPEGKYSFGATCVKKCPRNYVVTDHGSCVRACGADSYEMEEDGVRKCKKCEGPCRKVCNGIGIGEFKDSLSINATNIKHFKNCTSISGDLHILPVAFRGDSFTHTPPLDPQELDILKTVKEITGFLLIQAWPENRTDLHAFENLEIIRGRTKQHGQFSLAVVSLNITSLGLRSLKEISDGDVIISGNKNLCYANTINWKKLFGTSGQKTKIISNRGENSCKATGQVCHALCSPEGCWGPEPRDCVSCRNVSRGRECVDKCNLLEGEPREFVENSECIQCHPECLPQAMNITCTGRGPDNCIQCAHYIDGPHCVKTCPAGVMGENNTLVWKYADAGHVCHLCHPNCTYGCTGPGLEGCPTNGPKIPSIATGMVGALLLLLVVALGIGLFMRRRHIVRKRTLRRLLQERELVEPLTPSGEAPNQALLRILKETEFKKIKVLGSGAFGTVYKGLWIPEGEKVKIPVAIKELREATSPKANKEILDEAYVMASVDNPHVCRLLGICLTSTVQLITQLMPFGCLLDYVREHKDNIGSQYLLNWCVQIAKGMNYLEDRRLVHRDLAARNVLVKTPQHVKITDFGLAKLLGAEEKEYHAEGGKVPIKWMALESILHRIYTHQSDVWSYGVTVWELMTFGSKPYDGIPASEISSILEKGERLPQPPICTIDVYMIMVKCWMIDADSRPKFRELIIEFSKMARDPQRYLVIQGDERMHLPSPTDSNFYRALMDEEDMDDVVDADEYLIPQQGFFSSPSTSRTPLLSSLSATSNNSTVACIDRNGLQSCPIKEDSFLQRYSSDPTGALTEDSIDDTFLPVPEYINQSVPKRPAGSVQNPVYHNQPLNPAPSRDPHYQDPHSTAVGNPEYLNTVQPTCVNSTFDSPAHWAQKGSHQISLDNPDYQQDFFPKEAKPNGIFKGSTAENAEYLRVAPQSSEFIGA
Structure (SMILES),"ESR [1, 6] [mm/h]","Erythrocytes [1, 6]","Leukocytes [1, 6]","Lymphocytes [1, 6] [%]","Reticulocytes [1, 6] [%]","Segmented neutrophils [1, 6] [%]","Thrombocytes [1, 6]","ESR [1, 7] [mm/h]","Erythrocytes [1, 7]","Leukocytes [1, 7]","Lymphocytes [1, 7] [%]","Segmented neutrophils [1, 7] [%]","Thrombocytes [1, 7]","ESR [1, 8] [mm/h]","Erythrocytes [1, 8]","Leukocytes [1, 8]","Lymphocytes [1, 8] [%]","Reticulocytes [1, 8] [%]","Segmented neutrophils [1, 8] [%]",further results
"O=C([O-])[O-].[Li+].[Li+] [Li2HCO3, lithium carbonate]",2.4 ± 0.42,3.7 ± 0.21 10^12/l,3.75 ± 0.46* 10^9/l,62 ± 3.8,0.118 ± 0.01,19.7 ± 3.4,256 ± 45.3 10^9/l,2.0 ± 0.36,3.6 ± 0.29 10^12/l,3.22 ± 0.11* 10^9/l,50.7 ± 1.6,33 ± 1.7,119 ± 12.0** 10^3/l,2.4 ± 0.65,4.9 ± 0.27 10^12/l,5.9 ± 0.26** 10^9/l,69.3 ± 0.9,1.4 ± 0.3,14.9 ± 2.6,"Reticulocytes [1, 7]: 1.1 ± 0.1%"
CO[C@@H]1[C@@H](O[C@@H]2O[C@H](C)[C@@H](O[C@H]3C[C@@](C)(O)[C@@H](OC(=O)CC(C)C)[C@H](C)O3)[C@H](N(C)C)[C@H]2O)[C@@H](CC=O)C[C@@H](C)[C@@H](O)/C=C/C=C/C[C@@H](C)OC(=O)C[C@H]1OC(C)=O [josamycin],–,–,–,–,–,–,–,–,–,–,–,–,–,–,–,–,–,–,–,"% mortality [2, 9]: 37.5%; % protection, (S) [2, 9]: 37.5%; Died/total in group [2, 9]: 6/16; HML (T), (days), harmonic mean life [2, 9]: 12.35 days; % mortality [2, 10]: 12.5%; % protection, (S) [2, 10]: 62.5%; Died/total in group [2, 10]: 2/16; HML (T), (days), harmonic mean life [2, 10]: 83.3 days; % mortality [2, 11]: 0%; % protection, (S) [2, 11]: 75%; Died/total in group [2, 11]: 0/16; HML (T), (days), harmonic mean life [2, 11]: ∞"
NCC(=O)O [glycine],–,–,–,–,–,–,–,–,–,–,–,–,–,–,–,–,–,–,–,"influence on the tyrosine kinase activity of the epidermal growth factor receptor ([3]; ligands 0.015 μmol/ml, coordination compounds 0.015 nmol/ml): barely detected"
N[C@@H](CS)C(=O)O [cysteine],2.2 ± 0.30,3.0 ± 0.29 10^12/l,3.26 ± 0.31* 10^9/l,68 ± 2.8,0.09 ± 0.006,17.6 ± 2.1,220 ± 45.3 10^9/l,1.9 ± 0.39,3.1 ± 0.33 10^12/l,3.47 ± 0.08* 10^9/l,51.5 ± 1.3,30 ± 1.8,124 ± 11.0** 10^3/l,2.1 ± 0.73,4.7 ± 0.21 10^12/l,5.7 ± 0.22** 10^9/l,72.1 ± 1.6,1.1 ± 0.4,13.3 ± 1.9,"% mortality ([4]; 20 mg/kg daily for 14 days): 62.5%; Died/total in group ([4]; 20 mg/kg daily for 14 days): 10/16; ML (days) (T), mean life ([4]; 20 mg/kg daily for 14 days): 11.4 days; % mortality [2, 12]: 75%; % protection, (S) [2, 12]: 0%; Died/total in group [2, 12]: 12/16; HML (T), (days), harmonic mean life [2, 12]: 5.6 days; activation of the EGF receptor, by a factor of ([3]; cysteine 0.015 μmol/ml, periods of action from 1 hour to 4-8 hours, ratio to control): 8-10; [Ca2+]i increased to, by mobilization of calcium from the intracellular stores ([5]; rat peritoneal macrophages at rest, 0.015 μmol/ml): 180 ± 19 nM"
Nc1nc2c(ncn2COCCO)c(=O)[nH]1 [Zovirax],–,–,–,–,–,–,–,–,–,–,–,–,–,–,–,–,–,–,–,"% mortality [4, 13]: 50%; % protection, (S) [4, 13]: 12.5%; Died/total in group [4, 13]: 8/16; ML (days) (T), mean life [4, 13]: 12.8 days; % mortality [4, 14]: 0%; % protection, (S) [4, 14]: 62.5%; Died/total in group [4, 14]: 0/16; ML (days) (T), mean life [4, 14]: ∞"
Nc1ncnc2c1ncn2[C@@H]1O[C@H](COP(=O)(O)OP(=O)(O)OP(=O)(O)O)[C@@H](O)[C@H]1O [ATP],–,–,–,–,–,–,–,–,–,–,–,–,–,–,–,–,–,–,–,"[Ca2+]i peak of the Ca2+ signal ([5]; rat peritoneal macrophages, normal physiological solution, 200 μM ATP, baseline 75±18 nM): 820 ± 105 nM; [Ca2+]i in the plateau phase, on average ([5]; rat peritoneal macrophages, normal physiological solution, 4 min after addition of 200 μM ATP): 460 ± 115 nM"
"N[C@@H](CS)C(=O)[O-].[Li+] [C—Li, lithium salt of cysteine]",3.3 ± 0.80,4.0 ± 0.23 10^12/l,4.38 ± 0.31* 10^9/l,45 ± 1.6,0.1 ± 0.1,42 ± 1.6,387 ± 17.4 10^9/l,3.2 ± 0.80,3.2 ± 0.18 10^12/l,4.8 ± 0.18** 10^9/l,22 ± 0.9,50.4 ± 0.6,164 ± 10.0** 10^3/l,2.7 ± 0.49,5.2 ± 0.26 10^12/l,5.6 ± 0.22** 10^9/l,72.5 ± 1.4,1.3 ± 0.3,20.3 ± 2.4,"Reticulocytes [1, 7]: 1.2 ± 0.2%"

# From patent US20110105419A1, “PHARM[…] BASED ON CO[…] OF D-METALS” (priority 2008, published 2011)
